A short description of the data set: activity coefficient (dimensionless); of the first substance listed, at infinite dilution; xn = mol fraction of the nth substance listed. The note with it: Liquid, Chromatography, x1 = 0.

± gives the expanded uncertainty stated by the source.

In the case of `CC1CCCCC1` [methylcyclohexane] + CCCCCC[N+](C)(C)C.O=S(=O)([N-]S(=O)(=O)C(F)(F)F)C(F)(F)F, the activity coefficient reads like this: (322.65 K) 8.67 ± 0.4; (343.85 K) 7.78 ± 0.36; (352.65 K) 7.54 ± 0.35.
On to `C1CCCCC1` [cyclohexane] + CCn1cc[n+](C)c1.N#CN=C=[N-], for which the activity coefficient is 46 ± 2.1 (322.65 K), 42.1 ± 2 (332.85 K) and 38.7 ± 1.8 (343.15 K).
In the same order, the values of `CC1CCCCC1` [methylcyclohexane] + CCn1cc[n+](C)c1.N#CN=C=[N-] are 73.9 ± 3.5, 67.1 ± 3.1 and 61.3 ± 2.9.
As to `C1COCCO1` [1,4-dioxane] + CCCCCC[N+](C)(C)C.O=S(=O)([N-]S(=O)(=O)C(F)(F)F)C(F)(F)F, the activity coefficient runs as follows: (322.65 K) 0.655 ± 0.03; (343.85 K) 0.661 ± 0.03; (352.65 K) 0.68 ± 0.03.
As to `CCC=O` [propanal] + CCn1cc[n+](C)c1.N#CN=C=[N-], the activity coefficient is, setting by setting: (322.65 K) 1.4 ± 0.05; (332.85 K) 1.39 ± 0.05; (343.15 K) 1.37 ± 0.05.
Take `ClCCl` [dichloromethane] + CCn1cc[n+](C)c1.N#CN=C=[N-]: the activity coefficient reads like this: (322.65 K) 0.67 ± 0.03; (332.85 K) 0.73 ± 0.03; (343.15 K) 0.78 ± 0.03.
`C#CCCCC` [1-hexyne] + CCn1cc[n+](C)c1.N#CN=C=[N-]: the activity coefficient (322.65 K) turned out to be 8.7 ± 0.4, the activity coefficient (332.85 K) turned out to be 8.47 ± 0.39 and the activity coefficient (343.15 K) was found to be 8.44 ± 0.39.
For the compound `ClC(Cl)(Cl)Cl` [tetrachloromethane] + CCn1cc[n+](C)c1.N#CN=C=[N-], the activity coefficient is, setting by setting: (322.65 K) 4.49 ± 0.2; (332.85 K) 4.61 ± 0.21; (343.15 K) 4.71 ± 0.21.
Regarding `CC(C)OC(C)C` [diisopropyl ether] + CCCCCC[N+](C)(C)C.O=S(=O)([N-]S(=O)(=O)C(F)(F)F)C(F)(F)F, the activity coefficient (322.65 K) came to 3.2 ± 0.15, the activity coefficient (343.85 K) is 4.03 ± 0.18 and the activity coefficient (352.65 K) amounted to 4.12 ± 0.19.
On to `CCCCCCCCCCCC` [dodecane] + CCCCCC[N+](C)(C)C.O=S(=O)([N-]S(=O)(=O)C(F)(F)F)C(F)(F)F, for which the activity coefficient came out at 68.1 ± 3.2 (322.65 K), 55.8 ± 2.6 (343.85 K) and 52.9 ± 2.5 (352.65 K).
On to `CC(C)O` [propan-2-ol] + CCCCCC[N+](C)(C)C.O=S(=O)([N-]S(=O)(=O)C(F)(F)F)C(F)(F)F, for which the activity coefficient amounted to 1.69 ± 0.07 (322.65 K), 1.39 ± 0.051 (343.85 K) and 1.33 ± 0.046 (352.65 K).
As to `Cc1ccc(C)cc1` [1,4-dimethylbenzene] + CCn1cc[n+](C)c1.N#CN=C=[N-], the activity coefficient reads like this: (322.65 K) 6.93 ± 0.32; (332.85 K) 7.05 ± 0.32; (343.15 K) 6.79 ± 0.31.
Consider `CC(C)OC(C)C` [diisopropyl ether] + CCn1cc[n+](C)c1.N#CN=C=[N-], for which the activity coefficient reads like this: (322.65 K) 32.1 ± 1.5; (332.85 K) 32.3 ± 1.5; (343.15 K) 32.4 ± 1.5.
`CC1CCCC1` [methylcyclopentane] + CCCCCC[N+](C)(C)C.O=S(=O)([N-]S(=O)(=O)C(F)(F)F)C(F)(F)F: the activity coefficient is 6.61 ± 0.3 (322.65 K), 5.96 ± 0.27 (343.85 K) and 5.83 ± 0.27 (352.65 K).
As for `CCC(=O)CC` [pentan-3-one] + CCCCCC[N+](C)(C)C.O=S(=O)([N-]S(=O)(=O)C(F)(F)F)C(F)(F)F, the activity coefficient was 0.563 ± 0.032 (322.65 K), 0.601 ± 0.031 (343.85 K) and 0.637 ± 0.03 (352.65 K).
Consider `CCO` [ethanol] + CCn1cc[n+](C)c1.N#CN=C=[N-], for which the activity coefficient was determined as 0.78 ± 0.03 (322.65 K), 0.74 ± 0.03 (332.85 K) and 0.75 ± 0.03 (343.15 K).
With `CCCCCCCCCCC` [undecane] + CCCCCC[N+](C)(C)C.O=S(=O)([N-]S(=O)(=O)C(F)(F)F)C(F)(F)F, the activity coefficient reads like this: (322.65 K) 51.2 ± 2.4; (343.85 K) 42 ± 2; (352.65 K) 39.7 ± 1.8.
For the compound `CCC(C)CC` [3-methylpentane] + CCn1cc[n+](C)c1.N#CN=C=[N-], the activity coefficient by setting is: (322.65 K) 93.7 ± 4.4; (332.85 K) 87.2 ± 4.1; (343.15 K) 81.4 ± 3.8.
`C=CCCCC` [hex-1-ene] + CCn1cc[n+](C)c1.N#CN=C=[N-]: the activity coefficient (322.65 K) is 43.6 ± 2, the activity coefficient (332.85 K) is 41.6 ± 1.9 and the activity coefficient (343.15 K) came out at 39.9 ± 1.9.
On to `CO` [methanol] + CCCCCC[N+](C)(C)C.O=S(=O)([N-]S(=O)(=O)C(F)(F)F)C(F)(F)F, for which the activity coefficient (322.65 K) stood at 1.16 ± 0.035, the activity coefficient (343.85 K) came to 0.971 ± 0.025 and the activity coefficient (352.65 K) was 0.956 ± 0.026.
With `CC(C)CC(C)(C)C` [2,2,4-trimethylpentane] + CCn1cc[n+](C)c1.N#CN=C=[N-], the activity coefficient by setting is: (322.65 K) 202 ± 9.5; (332.85 K) 180 ± 8.5; (343.15 K) 162 ± 7.6.
Consider `CCc1ccccc1` [ethylbenzene] + CCn1cc[n+](C)c1.N#CN=C=[N-], for which the activity coefficient (322.65 K) worked out at 7.43 ± 0.34, the activity coefficient (332.85 K) was found to be 7.38 ± 0.34 and the activity coefficient (343.15 K) was 7.29 ± 0.33.
Consider `CCCCCCCCCC` [decane] + CCn1cc[n+](C)c1.N#CN=C=[N-], for which the activity coefficient stood at 699 ± 33 (322.65 K), 627 ± 30 (332.85 K) and 565 ± 27 (343.15 K).
For `C=O` [methanal] + CCCCCC[N+](C)(C)C.O=S(=O)([N-]S(=O)(=O)C(F)(F)F)C(F)(F)F, the activity coefficient was 0.228 ± 0.037 (322.65 K), 0.272 ± 0.036 (343.85 K) and 0.311 ± 0.035 (352.65 K).
For the compound `CC(C)CO` [2-methyl-1-propanol] + CCCCCC[N+](C)(C)C.O=S(=O)([N-]S(=O)(=O)C(F)(F)F)C(F)(F)F, the activity coefficient by setting is: (322.65 K) 2.1 ± 0.095; (343.85 K) 1.71 ± 0.071; (352.65 K) 1.63 ± 0.066.
For `c1ccccc1` [benzene] + CCCCCC[N+](C)(C)C.O=S(=O)([N-]S(=O)(=O)C(F)(F)F)C(F)(F)F, the activity coefficient is, setting by setting: (322.65 K) 0.99 ± 0.025; (343.85 K) 0.993 ± 0.025; (352.65 K) 1.02 ± 0.026.
As for `ClC(Cl)Cl` [trichloromethane] + CCCCCC[N+](C)(C)C.O=S(=O)([N-]S(=O)(=O)C(F)(F)F)C(F)(F)F, the activity coefficient worked out at 0.89 ± 0.027 (322.65 K), 0.929 ± 0.026 (343.85 K) and 0.966 ± 0.026 (352.65 K).
With `OCC(F)(F)F` [2,2,2-trifluoroethanol] + CCn1cc[n+](C)c1.N#CN=C=[N-], the activity coefficient is 0.1 ± 0.04 (322.65 K), 0.11 ± 0.04 (332.85 K) and 0.11 ± 0.04 (343.15 K).
Turning to `ClC(Cl)(Cl)Cl` [tetrachloromethane] + CCCCCC[N+](C)(C)C.O=S(=O)([N-]S(=O)(=O)C(F)(F)F)C(F)(F)F, the activity coefficient is 2.42 ± 0.11 (322.65 K), 2.39 ± 0.11 (343.85 K) and 2.42 ± 0.11 (352.65 K).
In the case of `CCOCC` [diethyl ether] + CCn1cc[n+](C)c1.N#CN=C=[N-], the activity coefficient reads like this: (322.65 K) 9.88 ± 0.45; (332.85 K) 9.71 ± 0.45; (343.15 K) 9.56 ± 0.44.
In the case of `Cc1ccccc1C` [1,2-dimethylbenzene] + CCCCCC[N+](C)(C)C.O=S(=O)([N-]S(=O)(=O)C(F)(F)F)C(F)(F)F, the activity coefficient reads like this: (322.65 K) 1.66 ± 0.068; (343.85 K) 1.69 ± 0.07; (352.65 K) 1.76 ± 0.075.
Regarding `CCCCCC` [hexane] + CCn1cc[n+](C)c1.N#CN=C=[N-], the activity coefficient by setting is: (322.65 K) 111 ± 5.2; (332.85 K) 99.6 ± 4.7; (343.15 K) 89.5 ± 4.2.
Consider `CCC=O` [propanal] + CCCCCC[N+](C)(C)C.O=S(=O)([N-]S(=O)(=O)C(F)(F)F)C(F)(F)F, for which the activity coefficient is 0.508 ± 0.032 (322.65 K), 0.502 ± 0.032 (343.85 K) and 0.505 ± 0.032 (352.65 K).
Consider `CCC[N+](=O)[O-]` [1-nitropropane] + CCCCCC[N+](C)(C)C.O=S(=O)([N-]S(=O)(=O)C(F)(F)F)C(F)(F)F, for which the activity coefficient is 0.699 ± 0.03 (322.65 K), 0.681 ± 0.03 (343.85 K) and 0.695 ± 0.03 (352.65 K).
Turning to `CCC[N+](=O)[O-]` [1-nitropropane] + CCn1cc[n+](C)c1.N#CN=C=[N-], the activity coefficient runs as follows: (322.65 K) 1.51 ± 0.06; (332.85 K) 1.5 ± 0.06; (343.15 K) 1.49 ± 0.06.
As for `CCc1ccccc1` [ethylbenzene] + CCCCCC[N+](C)(C)C.O=S(=O)([N-]S(=O)(=O)C(F)(F)F)C(F)(F)F, the activity coefficient is 1.83 ± 0.079 (322.65 K), 1.91 ± 0.084 (343.85 K) and 1.97 ± 0.088 (352.65 K).
In the case of `CC(C)O` [propan-2-ol] + CCn1cc[n+](C)c1.N#CN=C=[N-], the activity coefficient by setting is: (322.65 K) 1.2 ± 0.04; (332.85 K) 1.14 ± 0.03; (343.15 K) 1.09 ± 0.03.
For the compound `CC(C)CC(C)(C)C` [2,2,4-trimethylpentane] + CCCCCC[N+](C)(C)C.O=S(=O)([N-]S(=O)(=O)C(F)(F)F)C(F)(F)F, the activity coefficient runs as follows: (322.65 K) 13.1 ± 0.6; (343.85 K) 12.1 ± 0.56; (352.65 K) 11.8 ± 0.54.
With `C[N+](=O)[O-]` [nitromethane] + CCn1cc[n+](C)c1.N#CN=C=[N-], the activity coefficient (322.65 K) is 0.66 ± 0.03, the activity coefficient (332.85 K) came out at 0.64 ± 0.03 and the activity coefficient (343.15 K) was 0.63 ± 0.03.
For the compound `CCC(=O)CC` [pentan-3-one] + CCn1cc[n+](C)c1.N#CN=C=[N-], the activity coefficient (322.65 K) came out at 2.81 ± 0.13, the activity coefficient (332.85 K) was 2.84 ± 0.13 and the activity coefficient (343.15 K) was found to be 2.84 ± 0.13.
Take `CCCCO` [butan-1-ol] + CCn1cc[n+](C)c1.N#CN=C=[N-]: the activity coefficient by setting is: (322.65 K) 1.59 ± 0.06; (332.85 K) 1.47 ± 0.06; (343.15 K) 1.4 ± 0.05.
Taken in the same sequence, the figures for `CC#N` [acetonitrile] + CCn1cc[n+](C)c1.N#CN=C=[N-] were 0.8 ± 0.03, 0.79 ± 0.03 and 0.79 ± 0.03.

The record behind these values is the NIST ThermoML archive (doi:10.1021/je9003178).
